According to paper PMC4700278, “Molecular and Biochemical Analysis of the Estrogenic and Proliferative Properties of Vitamin E Compounds” (Frontiers in Oncology, 2016):

How the values were obtained:
Test in all cases: Quantitative RT-PCR of endogenous E2-regulated gene in MCF-7 cells
Type in all cases: cell-based, human
Settings in all cases: 500 μM, 16 h
PR = test system: PR
Procedure: (§1) Figure 3 Measurement of estrogenicity of tocols in vitro. (A) Dose–response curve of the effect of tocols on MCF-7 cells stably transfected with the ERE-β-globin-tk-Luc plasmid (MELN cells). […] Data shown are the mean values ± SEM from three independent experiments. (C) δ-TP or δ-TT stabilized ER-α in MCF-7 cells. […] MCF-7 extracts were analyzed for the presence of ERα by western blotting using GAPDH as a control. […] The western blot shown is representative of three independent experiments. […] (D) Effect of δ-tocols on estrogen response element-dependent luciferase activity in HELN cells, which are HELA cells transfected with either fully functional ERα or ERβ or their mutated versions containing a deletion the AB domain (ΔAB). […] Data shown are the mean values ± SEM from three independent experiments. (E) δ-Tocols modulate the induction of endogenous genes under the control of ER. […] Cells were treated with 500 μM δ-tocols in the presence or in the absence of ICI. The relative expression of TGFα, PR, and Ps2 (TFF1) after 16 h was analyzed by quantitative RT-PCR. Data shown are the mean values ± SEM from three independent experiments.

Ps2 (TFF1) = test system: Ps2 (TFF1)
Procedure: as §1

TGFα = test system: TGFα
Procedure: as §1

CC(C)=CCC/C(C)=C/CC/C(C)=C/CC[C@]1(C)CCc2cc(O)cc(C)c2O1 [δ-TT, δ-tocotrienol]
transcription of PR (fold increase) (PR): 1.6 fold | transcription of Ps2 (fold increase) (Ps2 (TFF1)): twofold | transcription of TGFα (fold increase) (TGFα): 1.1 fold
